The subject of one data set is microbial growth. Nature of the data set: Biological testing according to ASTM E2275. It counts as cell-based. As to conditions: 3-amino-4-octanol in solution at 6 total weight percent at higher. From the text:
The solutions of Examples 1 and 3 and Comparative Examples A and B are subjected to biological testing according to ASTM E2275.

The conditions of data set [1]: standard temperature and pressure (STP); cited from earlier work.

The source of these data is patent US12559696B2, “Amine containing aqueous fluids and method of producing same” (Illinois Tool Works Inc., priority 2023, dated 2026).

The structures appear in SMILES notation.

For the molecule `CCCCC(O)C(N)CC` (centres unmarked) [3-amino-4-octanol], the “resistance to microbial growth” value with microbial growth is on record as “enhanced resistant to microbial growth”. The “solubility of 3-amino-4-octanol in water” value in data set [1] is given as “about 4.5 percent by weight”.
